Results as given in patent publication US8217035B2, “Pyrimidine derivatives used as PI-3-kinase inhibitors” (Novartis AG, priority 2006, dated 2012).

molecular target: PI3 kinase alpha (Homo sapiens, UniProt P42336); test: PI3K ATP depletion assay (Biological Method 1, Assay 3; KinaseGlo luminescence); assay type: biochemical; settings: ATP depletion assay; read-out: PI3 Kinase Alpha, IC50
Experimental: The PI3 kinase alpha IC50 values shown in Table 1 were determined according to the ATP depletion assay as disclosed herein in Biological Method 1.
Assay 3: ATP Depletion Assay
Compounds to be tested are dissolved in DMSO and directly distributed into a black 384-well plate at 1.25 μL per well. To start the reaction, 25 μL of 10 nM PI3 kinase and 5 μg/mL 1-alpha-phosphatidylinositol (PI) are added into each well followed by 25 μL of 2 μM ATP. The reaction is performed until approx 50% of the ATP is depleted, and then stopped by the addition of 25 μL of KinaseGlo solution purchased from Promega. The stopped reaction is incubated for 5 minutes and the remaining ATP is then detected via luminescence.

Chain of PI3 kinase alpha (P42336 whole entry): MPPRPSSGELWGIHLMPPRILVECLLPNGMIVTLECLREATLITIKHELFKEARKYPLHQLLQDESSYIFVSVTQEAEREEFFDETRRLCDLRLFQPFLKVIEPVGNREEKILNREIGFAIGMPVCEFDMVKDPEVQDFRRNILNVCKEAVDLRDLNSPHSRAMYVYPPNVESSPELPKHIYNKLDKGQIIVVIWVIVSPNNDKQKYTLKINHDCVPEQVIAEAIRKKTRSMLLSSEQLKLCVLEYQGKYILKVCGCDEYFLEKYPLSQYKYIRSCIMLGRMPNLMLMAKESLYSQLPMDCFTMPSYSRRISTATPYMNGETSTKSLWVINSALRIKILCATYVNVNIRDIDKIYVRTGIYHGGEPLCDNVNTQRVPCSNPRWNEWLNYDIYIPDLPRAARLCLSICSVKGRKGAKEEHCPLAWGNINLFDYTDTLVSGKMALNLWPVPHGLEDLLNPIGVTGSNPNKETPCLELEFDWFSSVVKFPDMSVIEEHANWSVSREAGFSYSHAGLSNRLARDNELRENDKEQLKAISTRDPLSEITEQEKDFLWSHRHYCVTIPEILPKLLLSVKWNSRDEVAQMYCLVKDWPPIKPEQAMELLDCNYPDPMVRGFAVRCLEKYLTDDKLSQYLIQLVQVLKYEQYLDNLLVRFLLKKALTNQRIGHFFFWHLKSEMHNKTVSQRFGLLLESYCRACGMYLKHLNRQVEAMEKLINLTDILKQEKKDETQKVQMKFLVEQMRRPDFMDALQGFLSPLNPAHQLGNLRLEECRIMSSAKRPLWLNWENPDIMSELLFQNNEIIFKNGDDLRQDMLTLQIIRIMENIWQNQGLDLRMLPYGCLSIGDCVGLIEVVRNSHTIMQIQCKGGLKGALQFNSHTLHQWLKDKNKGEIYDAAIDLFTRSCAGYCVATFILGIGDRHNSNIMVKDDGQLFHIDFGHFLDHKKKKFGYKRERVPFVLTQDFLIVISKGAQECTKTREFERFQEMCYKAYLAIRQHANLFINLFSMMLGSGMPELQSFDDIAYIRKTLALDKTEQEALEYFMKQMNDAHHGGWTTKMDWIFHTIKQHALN
Chain of PI3 kinase alpha (P27986 whole entry partner): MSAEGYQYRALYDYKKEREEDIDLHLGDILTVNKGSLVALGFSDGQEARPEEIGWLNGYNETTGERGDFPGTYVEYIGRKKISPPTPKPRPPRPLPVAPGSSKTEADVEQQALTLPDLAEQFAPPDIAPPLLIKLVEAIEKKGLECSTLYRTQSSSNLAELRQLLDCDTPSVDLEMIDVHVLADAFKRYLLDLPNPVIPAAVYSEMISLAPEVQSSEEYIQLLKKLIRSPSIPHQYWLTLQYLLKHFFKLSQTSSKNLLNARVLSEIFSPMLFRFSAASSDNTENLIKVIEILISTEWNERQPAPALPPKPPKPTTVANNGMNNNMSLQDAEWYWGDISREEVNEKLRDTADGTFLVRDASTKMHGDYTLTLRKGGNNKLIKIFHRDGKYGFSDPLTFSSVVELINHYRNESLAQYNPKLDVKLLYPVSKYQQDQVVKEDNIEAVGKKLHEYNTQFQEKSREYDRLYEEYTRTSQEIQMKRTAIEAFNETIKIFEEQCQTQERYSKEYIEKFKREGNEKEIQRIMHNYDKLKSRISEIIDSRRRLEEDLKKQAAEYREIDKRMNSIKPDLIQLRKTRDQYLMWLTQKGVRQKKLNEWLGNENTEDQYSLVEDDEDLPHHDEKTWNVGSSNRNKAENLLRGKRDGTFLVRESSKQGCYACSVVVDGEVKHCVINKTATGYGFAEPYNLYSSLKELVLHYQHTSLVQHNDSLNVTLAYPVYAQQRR

Row | SMILES | IC50
1 | N#Cc1ccccc1Nc1cc(-c2ccc(N)nc2)nc(N2CCOCC2)n1 [Compound 441] | < 1 µM
2 | Nc1ccc(-c2cc(Nc3cccc(F)c3)nc(N3CCOCC3)n2)cn1 [Compound 439] | < 1 µM
3 | Cc1c(-c2cnc(N)nc2)nc(N2CCOCC2)nc1-c1cnc(N)nc1 [Compound 484] | < 1 µM
4 | Cc1nc(N)ncc1-c1nc(N2CCOCC2)nc(Cl)c1C [Compound 468] | < 1 µM
5 | COc1ccc(Nc2nc(N3CCOCC3)nc(-c3cnc(N)nc3)c2C)cn1 [Compound 480] | < 1 µM
6 | Nc1cc(C(F)(F)F)c(-c2cc(N3CCN(c4ccccc4)C3=O)nc(N3CCOCC3)n2)cn1 [Compound 18] | < 1 µM
7 | Nc1ncc(-c2cc(Nc3ccc4[nH]ncc4c3)nc(N3CCOCC3)n2)cn1 [Compound 522] | < 1 µM
8 | CN(C)c1cc(-c2cnc(N)nc2)nc(N2CCOCC2)n1 [Compound 400] | < 1 µM
9 | Nc1ncc(-c2cc(Cl)nc(N3CCOCC3)n2)cn1 [Compound 523] | < 1 µM
10 | Cc1c(Cl)nc(N2CCOCC2)nc1-c1cnc(N)nc1 [Compound 483] | < 1 µM
11 | Nc1cc(C(F)(F)F)c(-c2cc(Cl)nc(N3CCOCC3)n2)cn1 [Compound 467] | < 1 µM
12 | Nc1ncc(-c2cc(N[C@@H]3CN4CCC3CC4)nc(N3CCOCC3)n2)cn1 [Compound 520] | < 1 µM
13 | Nc1ncc(-c2cc(O[C@H]3CCOC3)nc(N3CCOCC3)n2)c(C(F)(F)F)n1 [Compound 530] | < 1 µM
14 | COc1ccc(Nc2cc(-c3ccc(N)nc3)nc(N3CCOCC3)n2)cc1 [Compound 442] | < 1 µM
15 | N#Cc1ccccc1Nc1cc(-c2cnc(N)nc2)nc(N2CCOCC2)n1 [Compound 449] | < 1 µM
16 | CS(=O)(=O)N1CC[C@H](Oc2cc(-c3cnc(N)cc3C(F)(F)F)nc(N3CCOCC3)n2)C1 [Compound 524] | < 1 µM
17 | CC(=O)N1CCC(Oc2cc(-c3cnc(N)cc3C(F)(F)F)nc(N3CCOCC3)n2)CC1 [Compound 19] | < 1 µM
18 | Nc1ncc(-c2ccnc(N3CCOCC3)n2)c(=O)[nH]1 [Compound 462] | < 1 µM
19 | Nc1ncc(-c2cc(Nc3ccc4[nH]cnc4c3)nc(N3CCOCC3)n2)cn1 [Compound 521] | < 1 µM
20 | CC(C)Oc1ccnc(Nc2cc(-c3cnc(N)cc3C(F)(F)F)nc(N3CCOCC3)n2)c1 [Compound 432] | < 1 µM
21 | Nc1cc(C(F)(F)F)c(-c2cc(-c3ccccc3S(N)(=O)=O)nc(N3CCOCC3)n2)cn1 [Compound 543] | < 1 µM
22 | CC(=O)N1CCC[C@@H](Oc2cc(-c3cnc(N)cc3C(F)(F)F)nc(N3CCOCC3)n2)C1 [Compound 453] | < 1 µM
23 | CC(C)OC(=O)N1CC[C@H](Oc2cc(-c3cnc(N)cc3C(F)(F)F)nc(N3CCOCC3)n2)C1 [Compound 534] | < 1 µM
24 | Cc1cnc(N2CCOCC2)nc1-c1cnc(N)nc1 [Compound 482] | < 1 µM
25 | Cc1cc(Nc2cc(-c3cnc(N)[nH]c3=O)nc(N3CCOCC3)n2)ccn1 [Compound 451] | < 1 µM
26 | CN1CCN(C(=O)c2cnc(N3CCOCC3)nc2-c2cnc(N)nc2)CC1 [Compound 428] | < 10 µM
27 | COc1ncccc1Nc1cc(-c2ccc(N)nc2)nc(N2CCOCC2)n1 [Compound 448] | < 1 µM
28 | N#Cc1cccc(Nc2cc(-c3ccc(N)nc3)nc(N3CCOCC3)n2)c1 [Compound 437] | < 1 µM
29 | N#Cc1cc(N)ncc1-c1cc(-c2cccnc2F)nc(N2CCOCC2)n1 [Compound 417] | < 1 µM
30 | CN(c1cc(-c2cnc(N)nc2)nc(N2CCOCC2)n1)C1CCOCC1 [Compound 6] | < 1 µM

system: A2780 ovarian cancer cells; test: Cellular proliferation in A2780 cells, Cell Titer Glo (Biological Method 4); assay type: cell-based; settings: Homo sapiens; ovarian cancer cell line A2780
Experimental: In addition, many of the compounds of Table 1 were tested to determine their inhibitory activity in a cellular proliferation assay according to Biological Method 4.
The ability of the compounds of the invention to inhibit cellular proliferation were determined by using Cell Titer Glo, a commercially available assay from Promega Corporation. A2780 ovarian cancer cells were seeded in TC treated 96-well plates at a density of 1,000 per well in DMEM, 10% FBS, 1% Sodium Pyruvate, and 1% Penicillin Streptomycin for a minimum of 2 hrs prior to addition of compound. For each concentration of test compound, 2 μl (500×) aliquots of compound or 100% DMSO diluted in 500 μl of culture medium for 2× concentration then diluted 1× on the Cells. Cells were incubated for 72 hrs at 37° C., 5% CO2. After the 72 hour incubation, Cell Titer Glo reagent is added to determine number of viable cells remaining after exposure to the compound, and the EC50 value was calculated. The assay was performed according to the manufacturer's instruction (Promega Corporation, Madison, Wis. USA). Each experimental condition was performed in duplicate.

Row | SMILES | EC50
31 | N#Cc1ccccc1Nc1cc(-c2ccc(N)nc2)nc(N2CCOCC2)n1 [Compound 441] | < 10 µM
32 | Nc1ccc(-c2cc(Nc3cccc(F)c3)nc(N3CCOCC3)n2)cn1 [Compound 439] | < 10 µM
33 | Cc1c(-c2cnc(N)nc2)nc(N2CCOCC2)nc1-c1cnc(N)nc1 [Compound 484] | < 10 µM
34 | Cc1nc(N)ncc1-c1nc(N2CCOCC2)nc(Cl)c1C [Compound 468] | < 25 µM
35 | COc1ccc(Nc2nc(N3CCOCC3)nc(-c3cnc(N)nc3)c2C)cn1 [Compound 480] | < 10 µM
36 | Nc1cc(C(F)(F)F)c(-c2cc(N3CCN(c4ccccc4)C3=O)nc(N3CCOCC3)n2)cn1 [Compound 18] | < 1 µM
37 | Nc1ncc(-c2cc(Nc3ccc4[nH]ncc4c3)nc(N3CCOCC3)n2)cn1 [Compound 522] | < 10 µM
38 | CN(C)c1cc(-c2cnc(N)nc2)nc(N2CCOCC2)n1 [Compound 400] | < 10 µM
39 | Nc1ncc(-c2cc(Cl)nc(N3CCOCC3)n2)cn1 [Compound 523] | < 10 µM
40 | Cc1c(Cl)nc(N2CCOCC2)nc1-c1cnc(N)nc1 [Compound 483] | < 25 µM
41 | Nc1cc(C(F)(F)F)c(-c2cc(Cl)nc(N3CCOCC3)n2)cn1 [Compound 467] | < 25 µM
42 | Nc1ncc(-c2cc(N[C@@H]3CN4CCC3CC4)nc(N3CCOCC3)n2)cn1 [Compound 520] | < 10 µM
43 | Nc1ncc(-c2cc(O[C@H]3CCOC3)nc(N3CCOCC3)n2)c(C(F)(F)F)n1 [Compound 530] | < 10 µM
44 | COc1ccc(Nc2cc(-c3ccc(N)nc3)nc(N3CCOCC3)n2)cc1 [Compound 442] | < 10 µM
45 | N#Cc1ccccc1Nc1cc(-c2cnc(N)nc2)nc(N2CCOCC2)n1 [Compound 449] | < 10 µM
46 | CS(=O)(=O)N1CC[C@H](Oc2cc(-c3cnc(N)cc3C(F)(F)F)nc(N3CCOCC3)n2)C1 [Compound 524] | < 10 µM
47 | CC(=O)N1CCC(Oc2cc(-c3cnc(N)cc3C(F)(F)F)nc(N3CCOCC3)n2)CC1 [Compound 19] | < 1 µM
48 | Nc1ncc(-c2ccnc(N3CCOCC3)n2)c(=O)[nH]1 [Compound 462] | < 10 µM
49 | Nc1ncc(-c2cc(Nc3ccc4[nH]cnc4c3)nc(N3CCOCC3)n2)cn1 [Compound 521] | < 10 µM
50 | CC(C)Oc1ccnc(Nc2cc(-c3cnc(N)cc3C(F)(F)F)nc(N3CCOCC3)n2)c1 [Compound 432] | < 10 µM
51 | Nc1cc(C(F)(F)F)c(-c2cc(-c3ccccc3S(N)(=O)=O)nc(N3CCOCC3)n2)cn1 [Compound 543] | < 10 µM
52 | CC(=O)N1CCC[C@@H](Oc2cc(-c3cnc(N)cc3C(F)(F)F)nc(N3CCOCC3)n2)C1 [Compound 453] | < 10 µM
53 | CC(C)OC(=O)N1CC[C@H](Oc2cc(-c3cnc(N)cc3C(F)(F)F)nc(N3CCOCC3)n2)C1 [Compound 534] | < 10 µM
54 | Cc1cnc(N2CCOCC2)nc1-c1cnc(N)nc1 [Compound 482] | < 10 µM
55 | Cc1cc(Nc2cc(-c3cnc(N)[nH]c3=O)nc(N3CCOCC3)n2)ccn1 [Compound 451] | < 10 µM
56 | CN1CCN(C(=O)c2cnc(N3CCOCC3)nc2-c2cnc(N)nc2)CC1 [Compound 428] | < 25 µM
57 | COc1ncccc1Nc1cc(-c2ccc(N)nc2)nc(N2CCOCC2)n1 [Compound 448] | < 10 µM
58 | N#Cc1cccc(Nc2cc(-c3ccc(N)nc3)nc(N3CCOCC3)n2)c1 [Compound 437] | < 10 µM
59 | N#Cc1cc(N)ncc1-c1cc(-c2cccnc2F)nc(N2CCOCC2)n1 [Compound 417] | < 25 µM
60 | CN(c1cc(-c2cnc(N)nc2)nc(N2CCOCC2)n1)C1CCOCC1 [Compound 6] | < 10 µM
